Measured values reported in patent publication US10934298B2, “Substituted pyrazolo[1,5-a]pyrimidines for the treatment of medical disorders” (BIAL—BioTech Investments, Inc., priority 2016, dated 2021).

Target: T1, glucocerebrosidase (Gcase) (Homo sapiens, UniProt P04062)
T1 construct: micellar solution containing 10 nM GCase and 100 nM saposin C
T1 sequence (P04062 40-536): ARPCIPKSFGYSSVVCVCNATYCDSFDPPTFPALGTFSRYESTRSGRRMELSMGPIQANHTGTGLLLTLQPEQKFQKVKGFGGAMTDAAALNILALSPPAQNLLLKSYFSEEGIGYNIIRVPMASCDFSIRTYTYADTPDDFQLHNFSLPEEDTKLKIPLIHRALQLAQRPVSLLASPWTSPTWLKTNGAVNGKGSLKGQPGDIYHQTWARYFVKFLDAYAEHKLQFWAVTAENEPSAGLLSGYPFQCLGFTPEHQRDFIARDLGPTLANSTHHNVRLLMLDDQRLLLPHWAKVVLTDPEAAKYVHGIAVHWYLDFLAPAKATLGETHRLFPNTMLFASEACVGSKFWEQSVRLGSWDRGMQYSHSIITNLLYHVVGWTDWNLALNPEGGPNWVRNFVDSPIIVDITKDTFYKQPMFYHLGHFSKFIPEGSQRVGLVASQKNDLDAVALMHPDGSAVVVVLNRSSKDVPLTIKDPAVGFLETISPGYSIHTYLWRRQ
Experiment: Glucocerebrosidase (Gcase) activation assay with 4-methylumbelliferyl-beta-D-glucopyranoside substrate, saposin C and phosphatidylserine/triton micelles, fluorescence readout
Format: biochemical
How it was run: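 Readout is endpoint fluorescence (ex 365, em 440 nm) after glycine pH 12.5 stop of a 15-min room-temperature reaction. Enzyme mix: GCase 10 nM plus saposin C 100 nM in 0.37 mol % PS/0.32 mM triton micelles, pH 4.7, compound pre-incubated 30 min; substrate solution 2 mM before 1:1 mixing. Tested at 1.0/0.1 μM, then 3-fold, 8-point series up to 5 μM.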

SMILES | Percent Gcase Activation, 0.1 μM Test Compound | Percent Gcase Activation, 1 μM Test Compound
Cc1nsc(C)c1-c1cc(C)n2ncc(C(=O)N[C@H](C3CC3)C(F)(F)F)c2n1 [III-385] | * (less than 10% Gcase activation) | + (less than 30% Gcase activation)
Cc1nsc(C)c1-c1cc(C)n2ncc(C(=O)N[C@@H](C3CC3)C(F)(F)F)c2n1 [III-386] | * (less than 10% Gcase activation) | + (less than 30% Gcase activation)
Cc1sncc1-c1cc(C)n2ncc(C(=O)N[C@H](C3CC3)C(F)(F)F)c2n1 [III-387] | *** (greater than 20% Gcase activation) | +++ (Gcase activation greater than 60%)
Cc1sncc1-c1cc(C)n2ncc(C(=O)N[C@@H](C3CC3)C(F)(F)F)c2n1 [III-388] | *** (greater than 20% Gcase activation) | +++ (Gcase activation greater than 60%)
Cc1nscc1-c1cc(C)n2ncc(C(=O)N[C@H](C3CC3)C(F)(F)F)c2n1 [III-389] | *** (greater than 20% Gcase activation) | +++ (Gcase activation greater than 60%)
Cc1nscc1-c1cc(C)n2ncc(C(=O)N[C@@H](C3CC3)C(F)(F)F)c2n1 [III-390] | *** (greater than 20% Gcase activation) | +++ (Gcase activation greater than 60%)
Cc1cc(-c2nnc(C(C)C)o2)nc2c(C(=O)N[C@H](C3CC3)C(F)(F)F)cnn12 [III-391] | ** (Gcase activation in the range of 10% up to 20%) | +++ (Gcase activation greater than 60%)
Cc1cc(-c2nnc(C(C)C)o2)nc2c(C(=O)N[C@@H](C3CC3)C(F)(F)F)cnn12 [III-392] | ** (Gcase activation in the range of 10% up to 20%) | +++ (Gcase activation greater than 60%)
Cc1cc(-c2noc(C(C)C)n2)nc2c(C(=O)N[C@H](C3CC3)C(F)(F)F)cnn12 [III-393] | *** (greater than 20% Gcase activation) | +++ (Gcase activation greater than 60%)
Cc1cc(-c2noc(C(C)C)n2)nc2c(C(=O)N[C@@H](C3CC3)C(F)(F)F)cnn12 [III-394] | *** (greater than 20% Gcase activation) | +++ (Gcase activation greater than 60%)
Cc1cc(C#N)nc2c(C(=O)N[C@@H](C3CC3)C(F)(F)F)cnn12 [III-395] | * (less than 10% Gcase activation) | ++ (Gcase activation in the range of 30% up to 60%)
Cc1cc(-c2cc(F)ccc2C#N)nc2c(C(=O)N[C@@H](C)C3CC3)cnn12 [III-396] | *** (greater than 20% Gcase activation) | +++ (Gcase activation greater than 60%)
Cc1cc(-c2c(F)cccc2C#N)nc2c(C(=O)N[C@@H](C)C3CC3)cnn12 [III-397] | ** (Gcase activation in the range of 10% up to 20%) | +++ (Gcase activation greater than 60%)
Cc1cc(-c2cccc(F)c2C#N)nc2c(C(=O)N[C@@H](C)C3CC3)cnn12 [III-398] | *** (greater than 20% Gcase activation) | +++ (Gcase activation greater than 60%)
Cc1cc(-c2cccc(F)c2C#N)nc2c(C(=O)N[C@@H](C)C(F)(F)F)cnn12 [III-399] | *** (greater than 20% Gcase activation) | +++ (Gcase activation greater than 60%)
Cc1cc(-c2c(F)cccc2C#N)nc2c(C(=O)N[C@@H](C)C(F)(F)F)cnn12 [III-400] | ** (Gcase activation in the range of 10% up to 20%) | +++ (Gcase activation greater than 60%)
Cc1cc(-c2noc(C(C)C)n2)nc2c(C(=O)N[C@@H](C)C(F)(F)F)cnn12 [III-401] | *** (greater than 20% Gcase activation) | +++ (Gcase activation greater than 60%)
Cc1cc(-c2noc(C(C)C)n2)nc2c(C(=O)N[C@@H](C)C3CC3)cnn12 [III-402] | *** (greater than 20% Gcase activation) | +++ (Gcase activation greater than 60%)
CO[C@H]1CC[C@H]([C@@H](C)NC(=O)c2cnn3c(C)cc(C)nc23)CC1 [III-403] | * (less than 10% Gcase activation) | ++ (Gcase activation in the range of 30% up to 60%)
CO[C@H]1CC[C@@H]([C@@H](C)NC(=O)c2cnn3c(C)cc(C)nc23)CC1 [III-404] | * (less than 10% Gcase activation) | +++ (Gcase activation greater than 60%)
COc1cccc(-c2cc(C)n3ncc(C(=O)NC(C)(C)C(F)(F)F)c3n2)c1 [III-405] | *** (greater than 20% Gcase activation) | +++ (Gcase activation greater than 60%)
Cc1cc(-c2cccc(Cl)c2)nc2c(C(=O)NC(C)(C)C(F)(F)F)cnn12 [III-406] | *** (greater than 20% Gcase activation) | +++ (Gcase activation greater than 60%)
CCc1cc(-c2ccccn2)nc2c(C(=O)NC(C)(C)C(F)(F)F)cnn12 [III-407] | * (less than 10% Gcase activation) | + (less than 30% Gcase activation)
Cc1cc(-c2ccccn2)nc2c(C(=O)NC(C)(C)C(F)(F)F)cnn12 [III-408] | ** (Gcase activation in the range of 10% up to 20%) | +++ (Gcase activation greater than 60%)
COc1ccc(F)c(-c2cc(C)n3ncc(C(=O)NC(C)C(F)(F)F)c3n2)c1 (stereo not drawn) [III-409] | *** (greater than 20% Gcase activation) | +++ (Gcase activation greater than 60%)
COc1cc(F)cc(-c2cc(C)n3ncc(C(=O)NC(C)C(F)(F)F)c3n2)c1 (stereo not drawn) [III-410] | *** (greater than 20% Gcase activation) | +++ (Gcase activation greater than 60%)
Cc1cc(-c2ccns2)nc2c(C(=O)NC(C3CC3)C(F)(F)F)cnn12 (stereo not drawn) [III-411] | *** (greater than 20% Gcase activation) | +++ (Gcase activation greater than 60%)
